Experimental data published in patent US11414387B2, “Oxoacridinyl acetic acid derivatives and methods of use” (Stingthera, Inc., priority 2017, dated 2022).

target: hSTING-CTD (Homo sapiens (Human), UniProt Q86WV6); assay: Human STING protein FP competition concentration response assay; type: binding; conditions: not given
Summary of the method: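 Compound, serially diluted 2-fold over 14 concentrations, competes with 2′-Fluo-AHC-c-di-GMP (30 nM) for binding to hSTING-CTD (10 uM) in PBS with 3.35% DMSO at room temperature for 10-20 min. Anisotropy change gives IC50 by sigmoidal four-parameter regression.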

Sequence of hSTING-CTD (Q86WV6 135-379): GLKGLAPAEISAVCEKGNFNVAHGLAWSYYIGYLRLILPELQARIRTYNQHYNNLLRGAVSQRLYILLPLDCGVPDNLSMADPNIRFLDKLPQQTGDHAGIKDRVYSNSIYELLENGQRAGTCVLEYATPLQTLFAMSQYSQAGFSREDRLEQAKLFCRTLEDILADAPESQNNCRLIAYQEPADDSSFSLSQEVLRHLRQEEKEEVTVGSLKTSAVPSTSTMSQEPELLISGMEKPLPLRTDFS

SMILES | IC50 [µM]
O=C(O)Cn1c2ccccc2c(=O)c2ccc(Cl)c(Cl)c21 [Compound 13] | 100 to 500
Cc1ccc2c(=O)c3cccc(C)c3n(CC(=O)O)c2c1 [Compound 11] | 500 to 1000
Cc1ccc2c(=O)c3ccc(Cl)cc3n(CC(=O)O)c2c1 [Compound 17] | 500 to 1000
O=C(O)Cn1c2ccccc2c(=O)c2cc(CCc3ccccc3)ccc21 [Compound 23] | 100 to 500

Second part, the compound after the results:

IC50 [µM] | SMILES
< 100 | Cc1cccc(-c2ccc3c(c2)c(=O)c2ccc(Cl)c(Cl)c2n3CC(=O)O)c1 [Compound 68]
500 to 1000 | CC1(C)CCC=C(c2ccc3c(c2)c(=O)c2ccc(Cl)c(Cl)c2n3CC(=O)O)C1 [Compound 67]
100 to 500 | Cc1cc2c(=O)c3ccc(Cl)c(Cl)c3n(CC(=O)O)c2cc1C [Compound 94]

target: mSTING-CTD (Mus musculus (Mouse), UniProt Q3TBT3); assay: Mouse STING protein FP competition concentration response assay; type: binding; conditions: not given
Sequence (Q3TBT3 134-378): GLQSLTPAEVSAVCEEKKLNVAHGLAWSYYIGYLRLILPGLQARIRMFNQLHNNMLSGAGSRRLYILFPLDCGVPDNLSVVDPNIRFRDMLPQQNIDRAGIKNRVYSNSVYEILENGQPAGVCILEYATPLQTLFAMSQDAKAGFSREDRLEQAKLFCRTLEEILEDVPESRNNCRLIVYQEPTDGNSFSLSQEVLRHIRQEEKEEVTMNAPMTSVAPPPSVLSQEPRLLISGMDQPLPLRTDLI
Procedure: A validated STING ligand, such as c-di-GMP, which is labeled with a read-out signal (e.g., a fluorescence signal such as fluorescein), is mixed with STING-CTD (e.g., mouse STING-CTD or human STING-CTD) with or without the presence of a compound of the present application. Changes in the read-out signal are measured (e.g., by fluorescence anisotropy) to determine the binding of the compound to STING-CTD.
Fluorescein labeled c-di-GMP was mixed with mSTING-CTD with or without the presence of a compound of the present application in PBS in black 384-well plates (10 μL per well). The fluorescence anisotropy was determined on a PerkinElmer EnVisions multi-mode plate reader. The plate can be read immediately after mixing the reagents or after a few hours without change of signals.
• 1) 6×his-sumo-mSTING (Supplier: HDB) • 2) 2′-Fluo-AHC-c-di GMP (BIOLOG #F009) • 3) 23-cGAMP (BIOLOG #C161) • 4) DMXAA (InvivoGen #tlrl-dmx) • 5) DMSO (Sigma. #D5879-100 mL) • 6) 10×PBS(HDB #MCP-020) • 7) Assay plate, 384-well black plate, solid black bottom (Greiner #784076) • 8) Compound dilution intermediate plate, 384 LDV plate (Labcyte #LP-0200) • 9) Liquid handler, ECHO550 (Labcyte) • 10) Liquid handler, Bravo (Aglient) • 11) Reader, Envision (PerkinElmer) • 12) Centrifuge (Eppendorf) • 13) Multichannel Pipette (Raining) • 14) 10 ml Reservoir (Corning) • 15) 15 ml centrifuge tube (Corning) • 16) Adhesive Plate seals (BioRad) Compound Preparation • a) Containers of each compound were centrifuged at 1000 rpm for 5 min. • b) Compounds were dissolved in DMSO at 30 mM. • c) Compounds were sufficiently vortexed, and centrifuged at 1000 rpm for 1 min. • d) 16 uL of the compound solution was transferred into a LDV Compound Plate. • e) 2-fold serial dilutions of the compound solution were made with DMSO, and 14 concentrations were made in the 384-well LDV Compound Plate. • f) The LDV plate was spun at 1000 rpm for 60 sec and sealed with foil (stored at −20° C. if not used immediately). • g) 335 nL of each compound from the LDV Compound Plate was transferred to Assay Plate (ECHO550). Probe Preparation • a) 200 uM probe stock (2′-Fluo-AHC-c-diGMP) was diluted by dd2O to 6 uM working concentration. • b) 10-12 uL 6 uM working solution of probe was transferred into the LDV plate. • c) 50 nL per well 6 uM working solution of probe was transferred from the LDV plate to each well of the empty Assay Plate (Greiner 784076) by ECHO550 Buffer mode. • d) Probe final concentration was 30 nM when assay system was 10 uL. • e) The Assay Plate was spun at 1000 rpm for 1 min. Compound Addition • a) After the LDV Compound Plate was prepared, 100 nL compound (ECHO550 DMSO mode) was transferred from the LDV Compound Plate into the Assay Plate (Greiner 784076) containing 50 nL probe in each well according to the Assay Plate layout. • b) DMSO final concentration was 1% when assay system was 10 uL. • c) The Assay Plate was spun at 1000 rpm for 1 min. Protein Addition • a) Aliquot of 6×his-sumo-mSTING protein was thawed on ice, briefly to generate uniform solution. • b) 66 uM stock protein was diluted in 1×PBS assay buffer to generate 8 uM final solutions. • c) For test compound and ZPE wells, 10 μL per well of 8 uM protein solutions was added into the Assay Plate containing both the probe and test compounds or DMSO using multichannel pipette. • d) For HPE wells, 10 µL/well of 1×PBS assay buffer instead of protein was added into the Assay Plate containing both the probe and DMSO using multichannel pipette. • e) The Assay Plate was spun at 1000 rpm for 1 min. • f) The Assay Plate was incubated at r.t. for 10-20 min.
The EnVision plate reader was used to record the FA value of each well immediately after mixing the reagents or after a few hours without change of signals.
The raw data and calculated data (Fluorescence anisotropy (FA)) was exported from the EnVision reader. […]

SMILES | IC50 [µM]
O=C(O)Cn1c2ccccc2c(=O)c2ccc(Cl)c(Cl)c21 [Compound 13] | 10 to 50
Cc1ccc2c(=O)c3cccc(C)c3n(CC(=O)O)c2c1 [Compound 11] | < 10
Cc1ccc2c(=O)c3ccc(Cl)cc3n(CC(=O)O)c2c1 [Compound 17] | 10 to 50
O=C(O)Cn1c2ccccc2c(=O)c2cc(CCc3ccccc3)ccc21 [Compound 23] | 10 to 50

The remaining lines, values ahead:

IC50 [µM] | SMILES
10 to 50 | Cc1cccc(-c2ccc3c(c2)c(=O)c2ccc(Cl)c(Cl)c2n3CC(=O)O)c1 [Compound 68]
> 100 | CC1(C)CCC=C(c2ccc3c(c2)c(=O)c2ccc(Cl)c(Cl)c2n3CC(=O)O)C1 [Compound 67]
50 to 100 | Cc1cc2c(=O)c3ccc(Cl)c(Cl)c3n(CC(=O)O)c2cc1C [Compound 94]

target: mSTING (Mus musculus, UniProt Q3TBT3); assay: Radiometric filtration binding competition assay, mSTING; conditions: not given

IC50 [µM] | SMILES
100 to 300 | CSc1c(Cl)ccc2c(=O)c3ccccc3n(CC(=O)O)c12 [Compound 212]
< 20 | COc1c(Cl)ccc2c(=O)c3ccc(C4=CCCCC4)cc3n(CC(=O)O)c12 [Compound 219]
> 300 | O=C(O)Cn1c2ccccc2c(=O)c2ccc(Cl)c(Cl)c21 [Compound 13]

target: hSTING-WT (Homo sapiens (Human), UniProt Q86WV6, H232R); assay: Radiometric filtration binding competition assay, hSTING-WT; conditions: not given
Sequence (Q86WV6 140-379 H232R): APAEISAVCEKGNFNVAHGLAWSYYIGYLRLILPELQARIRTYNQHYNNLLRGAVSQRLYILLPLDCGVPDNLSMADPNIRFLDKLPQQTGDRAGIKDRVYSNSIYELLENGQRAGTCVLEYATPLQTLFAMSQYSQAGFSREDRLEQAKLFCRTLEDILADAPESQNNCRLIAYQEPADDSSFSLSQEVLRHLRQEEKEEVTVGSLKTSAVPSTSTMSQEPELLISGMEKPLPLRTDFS

IC50 [µM] | SMILES
100 to 300 | CSc1c(Cl)ccc2c(=O)c3ccccc3n(CC(=O)O)c12 [Compound 212]
< 20 | COc1c(Cl)ccc2c(=O)c3ccc(C4=CCCCC4)cc3n(CC(=O)O)c12 [Compound 219]
> 300 | O=C(O)Cn1c2ccccc2c(=O)c2ccc(Cl)c(Cl)c21 [Compound 13]

target: hSTING-HAQ (Homo sapiens (Human), UniProt Q86WV6, G230A/H232R/R293Q); assay: Radiometric filtration binding competition assay, hSTING-HAQ; conditions: not given
Sequence (Q86WV6 140-379 G230A/H232R/R293Q): as the sequence (Q86WV6 140-379 H232R) above, with G91A, R154Q counted along it

IC50 [µM] | SMILES
> 300 | CSc1c(Cl)ccc2c(=O)c3ccccc3n(CC(=O)O)c12 [Compound 212]
20 to 100 | COc1c(Cl)ccc2c(=O)c3ccc(C4=CCCCC4)cc3n(CC(=O)O)c12 [Compound 219]

target: mSTING-R232 (Mus musculus, UniProt Q3TBT3); assay: STING differential scanning fluorimetry (DSF) assay, mouse STING; conditions: net shift in melting temperature

MOUSE DSF_6xHIS-SUMO Tm Shift (° C.) | SMILES
C (“C” = 5-15° C.) | O=C(O)Cn1c2ccccc2c(=O)c2ccc(Cl)c(Cl)c21 [Compound 13]

target: hSTING-R232 (Homo sapiens (Human), UniProt Q86WV6, H232R); assay: STING differential scanning fluorimetry (DSF) assay, WT human STING; conditions: WT (R232) human STING aa140-379, net shift in melting temperature
Sequence (Q86WV6 140-379 H232R): as the sequence (Q86WV6 140-379 H232R) above

WT_DSF_hSWAT Tm Shift (° C.) | SMILES
C (“C” = 2-7° C,) | CSc1c(Cl)ccc2c(=O)c3ccccc3n(CC(=O)O)c12 [Compound 212]
D (“D” > 7° C.) | COc1c(Cl)ccc2c(=O)c3ccc(C4=CCCCC4)cc3n(CC(=O)O)c12 [Compound 219]
B (“B” = 0-2° C.) | O=C(O)Cn1c2ccccc2c(=O)c2ccc(Cl)c(Cl)c21 [Compound 13]
